pIC50, pKi: −log10 of the molar value. Read-outs that look alike come from different tables or passages of the source.

Drawing on patent US20040097594A1 (priority 1998, published 2004), this text covers Ki and IC50 for 17 compounds.

One experiment has as its target HIV-1 protease (Human immunodeficiency virus type 1 group M subtype B, UniProt P04585). The experiment in a line: biochemical.
For the next experiment, the system named is HIV-1 (strain IIIB). The experiment in a line: microbe, parasite or virus in culture. In kind it is cell-based. The following applies: Human immunodeficiency virus 1, 120 h; MT4 cells infected with HIV-1 strain IIIB, 5 days; lower line of each compound's entry; read-out: IC50 (MT-4 cells).
[1] abbreviates: HIV-1 protease, upper line of each compound's entry, read-out: Ki (enzyme).

In the case of `COC(=O)Nc1nc2cc(S(=O)(=O)N(C[C@@H](O)[C@H](Cc3ccccc3)NC(=O)OC3CO[C@H]4OCC[C@@H]34)OC3CCCC3)ccc2[nH]1` (mixture of isomers) [Compound 54, (3aS,6aR)Hexahydrofuro[2,3-b]furan-3-yl N-(1S,2R)-1-benzyl-3-[(cyclopentyloxy)(2-[(methoxycarbonyl)amino]-1H benzimidazol-5-ylsulfonyl)amino]-2-hydroxypropylcarbamate], the pKi on HIV-1 protease (setting [1]) was greater than 9.00. Further, the pIC50 in the experiment with HIV-1 (strain IIIB) is no less than 7.00.
In the same order, the values of `CON(C)C(=O)CNc1cccc(S(=O)(=O)N(CC(O)C(Cc2ccccc2)NC(=O)OC2COC3OCCC23)OC2CCCC2)c1` (mixture of isomers) [Compound 88, (3R,3aS,6aR)hexahydrofuro[2,3-b]furan-3-yl N-[(1S,2R)-1-benzyl-3-((cyclopentyloxy)[3-(2-[methoxy(methyl)amino]-2-oxoethylamino)phenyl]sulfonylamino)-2-hydroxypropyl]carbamate and (3S,3aR,6aS)hexahydrofuro[2,3-b]furan-3-yl N-[(1S,2R)-1-benzyl-3-((cyclopentyloxy)[3-(2[methoxy(methyl)amino]-2-oxoethylamino)phenyl]sulfonylamino)-2-hydroxypropyl]carbamate] are greater than 9.00 and no less than 7.00.
In the same order, the values of `CCOC(=O)CNC(=O)NCCNc1cccc(S(=O)(=O)N(CC(O)C(Cc2ccccc2)NC(=O)OC2COC3OCCC23)OC2CCCC2)c1` (mixture of isomers) [Compound 113, Ethyl 2-[([2-(3-[[(2R,3S)-3-([(3R,3aS,6aR)hexahydrofuro[2,3-b]furan-3-yloxy]carbonylamino)-2-hydroxy-4-phenylbutyl](cyclopentyloxy)amino]sulfonylanilino)ethyl]aminocarbonyl)amino]acetate and ethyl 2-[([2-(3-[[(2R,3S)-3-([(3S,3aR,6aS)hexahydrofuro[2,3-b]furan-3-yloxy]carbonylamino)-2-hydroxy-4 phenylbutyl](cyclopentyloxy)amino]sulfonylanilino)ethyl]aminocarbonyl)amino]acetate] are greater than 9.00 and no less than 7.00.
In the same order, the values of `COC(=O)NCCNc1cccc(S(=O)(=O)N(CC(O)C(Cc2ccccc2)NC(=O)OC2COC3OCCC23)OC2CCCC2)c1` (mixture of isomers) [Compound 124, (3R,3aS,6aR)hexahydrofuro[2,3-b]furan-3-yl N-[(1S,2R)-1-benzyl-3-((cyclopentyloxy)[3-(2-[(methoxycarbonyl)amino]ethylamino)phenyl]sulfonylamino)-2-hydroxypropyl]carbamate and (3S,3aR,6aS)hexahydrofuro[2,3-b]furan-3-yl N-[(1S,2R)-1-benzyl-3-((cyclopentyloxy)[3-(2-[(methoxycarbonyl)amino]ethylamino)phenyl]sulfonylamino)-2-hydroxypropyl)carbamate] are greater than 9.00 and no less than 7.00.
For `CONC(=O)CNc1cccc(S(=O)(=O)N(CC(O)C(Cc2ccccc2)NC(=O)OC2COC3OCCC23)OC2CCCC2)c1` (mixture of isomers) [Example 168, (3R,3aS,6aR)hexahydrofuro[2,3-b]furan-3-yl N-[(1S,2R)-1-benzyl-3-((cyclopentyloxy)[3-(2-[methoxyamino]-2-oxoethylamino)phenyl]sulfonylamino)-2-hydroxypropyl]carbamate and (3S,3aR,6aS)hexahydrofuro[2,3-b]furan-3-yl N-[(1S,2R)-1-benzyl-3-((cyclopentyloxy)[3-(2-[methoxyamino]-2-oxoethylamino)phenyl]sulfonylamino)-2-hydroxypropyl]carbamate], on HIV-1 protease (setting [1]), the pKi was greater than 9.00. Also, in the experiment on HIV-1 (strain IIIB), the pIC50 is no less than 7.00.
In the same order, the values of `CCN(C)C(=O)CNc1cccc(S(=O)(=O)N(CC(O)C(Cc2ccccc2)NC(=O)OC2COC3OCCC23)OC2CCCC2)c1` (mixture of isomers) [Example 170, (3R,3aS,6aR)hexahydrofuro[2,3-b]furan-3-yl N-[(1S,2R)-1-benzyl-3-((cyclopentyloxy)[3-(2-[ethyl(methyl)amino]-2-oxoethylamino)phenyl]sulfonylamino)-2-hydroxypropyl)carbamate and (3S,3aR,6aS)hexahydrofuro[2,3-b]furan-3-yl N-[(1S,2R)-1-benzyl-3-((cyclopentyloxy)[3-(2-[ethyl(methyl)amino]-2-oxoethylamino)phenyl]sulfonylamino)-2-hydroxypropyl]carbamate] are greater than 9.00 and no less than 7.00.
As to `Nc1cccc(S(=O)(=O)N(C[C@@H](O)[C@H](Cc2ccccc2)NC(=O)O[C@H]2CO[C@H]3OCC[C@H]32)OC2CCCC2)c1` (single isomer, unassigned) [Compound 77], the pKi at HIV-1 protease (setting [1]) was greater than 9.00. For the same compound, the negative-log IC50 (pIC50) with HIV-1 (strain IIIB) was no less than 7.00.
`O=C(N[C@@H](Cc1ccccc1)[C@H](O)CC(OC1CCCC1)S(=O)(=O)c1ccc2nccnc2c1)OC1CCOC1` (stereo in doubt) [Compound 110, (3S)tetrahydro-3-furanyl N-[(1S,2R)-1-benzyl-4-(cyclopentyloxy)-2-hydroxy-4-(6-quinoxalinylsulfonyl)butyl]carbamate]: the pKi on HIV-1 protease (setting [1]) is greater than 9.00. The pIC50 in the experiment on HIV-1 (strain IIIB) was 6.30 to 7.00.
`CC(C)ON(C[C@@H](O)[C@H](Cc1ccccc1)NC(=O)OC(C)(C)C)S(=O)(=O)c1cccc(N)c1` [Compound 1]: the negative-log Ki (pKi) on HIV-1 protease (setting [1]) was 7.00 to 8.00. For the same compound, in the experiment with HIV-1 (strain IIIB), the pIC50 was less than 6.00.
Take `CC(C)ON(C[C@@H](O)[C@H](Cc1ccccc1)NC(=O)OC(C)(C)C)S(=O)(=O)c1ccc(N)c(N)c1` [Compound 2]: the pKi on HIV-1 protease (setting [1]) was 7.00 to 8.00. Besides, the pIC50 in the experiment on HIV-1 (strain IIIB) was less than 6.00.
On to `CC(C)ON(C[C@@H](O)[C@H](Cc1ccccc1)NC(=O)OC(C)(C)C)S(=O)(=O)c1ccc2[nH]cnc2c1` [Compound 3], for which, at HIV-1 protease (setting [1]), the pKi is 7.00 to 8.00. For the same compound, in the experiment with HIV-1 (strain IIIB), the pIC50 is less than 6.00.
In the same order, the values of `CC(C)ON(C[C@@H](O)[C@H](Cc1ccccc1)NC(=O)OC(C)(C)C)S(=O)(=O)c1ccc2[nH]c(=O)[nH]c2c1` [Compound 4] are 7.00 to 8.00 and less than 6.00.
As for `CC(C)ON(C[C@@H](O)[C@H](Cc1ccccc1)NC(=O)OC(C)(C)C)S(=O)(=O)c1ccc2[nH]c(NS(C)(=O)=O)nc2c1` [Compound 5], on HIV-1 protease (setting [1]), the pKi was 8.00 to 9.00. The pIC50 with HIV-1 (strain IIIB) was 6.00 to 6.30.
`COc1ccc(S(=O)(=O)N(C[C@@H](O)[C@H](Cc2ccccc2)NC(=O)OC(C)(C)C)OC(C)C)cc1` [Compound 6] had a negative-log Ki (pKi) at HIV-1 protease of 7.00 to 8.00. In the experiment on HIV-1 (strain IIIB), the pIC50 was less than 6.00.
Take `COc1ccc(S(=O)(=O)N(C[C@@H](O)[C@H](Cc2ccccc2)NC(=O)OC(C)(C)C)OC2CCCC2)cc1` [Compound 7]: the pKi at HIV-1 protease is 8.00 to 9.00. Besides, the pIC50 with HIV-1 (strain IIIB) is less than 6.00.
For the compound `CC(C)(C)OC(=O)N[C@@H](Cc1ccccc1)[C@H](O)CN(OC1CCCC1)S(=O)(=O)c1ccc2[nH]c(NC(=O)N3CCOCC3)nc2c1` [Compound 8], the pKi at HIV-1 protease (setting [1]) is greater than 9.00. Besides, the pIC50 in the experiment with HIV-1 (strain IIIB) is 6.00 to 6.30.
As for `CC(C)(C)OC(=O)N[C@@H](Cc1ccccc1)[C@H](O)CN(OC1CCCC1)S(=O)(=O)c1cccc(N)c1` [Compound 11, tert-butyl N-(1S,2R)-3-[[(3-aminophenyl)sulfonyl](cyclopentyloxy)amino]-1-benzyl-2-hydroxypropylcarbamate], the negative logarithm of the Ki (pKi) at HIV-1 protease (setting [1]) is 8.00 to 9.00. For the same compound, the pIC50 in the experiment on HIV-1 (strain IIIB) is less than 6.00.

As a reminder, the pKi is the negative decadic logarithm of the Ki, by convention in mol/L. As usually defined, the pIC50 is −log10 of the IC50, conventionally taken in molar units.
